Source: patent US8546440B2, “Substituted bicyclic imidazole derivatives as gamma secretase modulators” (Janssen Pharmaceuticals, Inc., priority 2008, dated 2013)

Assays:
Aβtotal [1] = assay: Screening for γ-secretase-modulating activity, Method 1: Aβtotal sandwich ELISA in supernatant of SKNBE2 cells carrying APP 695 wild type (Tables 12a, 12b); type: cell-based; settings: Homo sapiens
Summary of the method: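 SKNBE2 cells expressing wild-type APP 695 were plated a day ahead, then exposed to compound in Ultraculture with 1% glutamine for 18 hours. Supernatant Aβtotal captured on 6E10 overnight at 4° C, detected with biotinylated 4G8 and streptavidin-peroxidase with a fluorogenic substrate. IC50 from 4-parameter dose-response fits.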

Aβ42 [2] = assay: Screening for γ-secretase-modulating activity, Method 1: Aβ42 sandwich ELISA in supernatant of SKNBE2 cells carrying APP 695 wild type (Tables 12a, 12b); type: cell-based; settings: Homo sapiens
Summary of the method: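 SKNBE2 cells expressing wild-type APP695 were treated with compound for 18 h, and secreted Aβ42 in the medium was quantified by sandwich ELISA (C-terminal-selective capture, biotinylated 3D6 detection, TMB read at 450 nm). IC50 came from 4-parameter fits of % inhibition or % of untreated control; toxicity was checked by WST-1.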

Aβ42 [3] = assay: Screening for γ-secretase-modulating activity, Method 2: Aβ42 Alphalisa in supernatant of SKNBE2 cells carrying APP 695 wild type (Table 12c); type: cell-based; settings: Homo sapiens, Method 2, Table 12c, incubated overnight
Protocol: (§1) Screening was carried out using SKNBE2 cells carrying the APP 695—wild type, grown in Dulbecco's Modified Eagle's Medium/Nutrient mixture F-12 (DMEM/NUT-mix F-12) (HAM) provided by Invitrogen (cat no. 10371-029) containing 5% Serum/Fe supplemented with 1% non-essential amino acids, 1-glutamine 2 mM, Hepes 15 mM, penicillin 50 U/ml (units/ml) en streptomycin 50 μg/ml. Cells were grown to near confluency.
(§2) The screening was performed using a modification of the assay as described in Citron et al (1997) Nature Medicine 3: 67. Briefly, cells were plated in a 384-well plate at 10^4 cells/well in Ultraculture (Lonza, BE12-725F) supplemented with 1% glutamine (Invitrogen, 25030-024), 1% non-essential amino acid (NEAA), penicillin 50 U/ml en streptomycin 50 μg/ml in the presence of test compound at different test concentrations. The cell/compound mixture was incubated overnight at 37° C., 5% CO2, The next day the media were assayed by two sandwich immuno-assays, for Aβ42 and Aβtotal.
(§3) Aβtotal and Aβ42 concentrations were quantified in the cell supernatant using the Aphalisa technology (Perkin Elmer). Alphalisa is a sandwich assay using biotinylated antibody attached to streptavidin coated donorbeads and antibody conjugated to acceptor beads. In the presence of antigen, the beads come into close proximity. The excitation of the donor beads provokes the release of singlet oxygen molecules that trigger a cascade of energy transfer in the acceptor beads, resulting in light emission. To quantify the amount of Aβ42 in the cell supernatant, monoclonal antibody specific to the C-terminus of Aβ42 (JRF/cAβ42/26) was coupled to the receptor beads and biotinylated antibody specific to the N-terminus of Aβ (JRF/AβN/25) was used to react with the donor beads. To quantify the amount of Aβtotal in the cell supernatant, monoclonal antibody specific to the N-terminus of Aβ (JRF/AβN/25) was coupled to the receptor beads and biotinylated antibody specific to the mid region of Aβ (biotinylated 4G8) was used to react with the donor beads.
(§4) To obtain the values reported in Table 12c, the data are calculated as percentage of the maximum amount of amyloid Beta 42 measured in the absence of the test compound. The sigmoidal dose response curves were analyzed using non-linear regression analysis with percentage of the control plotted against the log concentration of the compound. A 4-parameter equation was used to determine the IC50.

Aβtotal [4] = assay: Screening for γ-secretase-modulating activity, Method 2: Aβtotal Alphalisa in supernatant of SKNBE2 cells carrying APP 695 wild type (Table 12c); type: cell-based; settings: Homo sapiens, Method 2, Table 12c, incubated overnight
Protocol: as §1, §2, §3, §4

Aβtotal [5] = assay: Demonstration of in vivo efficacy: Aβtotal lowering in brain after single oral dose (Table 13); settings: mouse brain soluble fraction, mean, compared to untreated animals
Text: (§5) To determine whether acute administration of an Aβ42 lowering agent would reduce Aβ42 levels in vivo, non-transgenic rodents, e.g. mice or rats were used. Alternatively, two to three month old Tg2576 mice expressing APP695 containing the “Swedish” variant can be used or a transgenic mouse model developed by Dr. Fred Van Leuven (K. U. Leuven, Belgium) and co-workers, with neuron-specific expression of a clinical mutant of the human amyloid precursor protein [V717I] (Moechars et al., 1999 J. Biol. Chem. 274, 6483). Young transgenic mice have high levels of Aβ in the brain but no detectable Aβ deposition. At approximately 6-8 months of age, the transgenic mice start to display spontaneous, progressive accumulation of β-amyloid (Aβ) in the brain, eventually resulting in amyloid plaques within the subiculum, hippocampus and cortex. Animals treated with the Aβ42 lowering agent were examined and compared to those untreated or treated with vehicle and brain levels of soluble Aβ42 and total Aβ would be quantitated by standard techniques, for example, using ELISA. Treatment periods varied from hours to days and were adjusted based on the results of the Aβ42 lowering once a time course of onset of effect could be established.
(§6) A typical protocol for measuring Aβ42 lowering in vivo is shown but it is only one of many variations that could be used to optimize the levels of detectable Aβ. For example, Aβ42 lowering compounds were formulated in 20% of Captisol® (a sulfobutyl ether of β-cyclodextrin) in water or 20% hydroxypropyl β cyclodextrin. The Aβ42 lowering agents were administered as a single oral dose or by any acceptable route of administration to overnight fasted animals. After four hours, the animals were sacrificed and Aβ42 levels were analysed.
(§7) Blood was collected by decapitation and exsanguinations in EDTA-treated collection tubes. Blood was centrifuged at 1900 g for 10 minutes at 4° C. and the plasma recovered and flash frozen for later analysis. The brain was removed from the cranium and hindbrain. The cerebellum was removed and the left and right hemisphere were separated. The left hemisphere was stored at −18° C. for quantitative analysis of test compound levels. The right hemisphere was rinsed with phosphate-buffered saline (PBS) buffer and immediately frozen on dry ice and stored at −80° C. until homogenization for biochemical assays.
Mouse brains were resuspended in 10 volumes of 0.4% DEA (diethylamine)/50 mM NaCl pH 10 (for non-transgenic animals) or 0.1% 3-[3-cholamidopropyl)-dimethyl-ammonio]-1-propanesulfonate (CHAPS) in tris buffered saline (TBS) (for transgenic animals) containing protease inhibitors (Roche-11873580001 or 04693159001) per gram of tissue, e.g. for 0.158 g brain, add 1.58 ml of 0.4% DEA. All samples were sonicated for 30 seconds on ice at 20% power output (pulse mode). Homogenates were centrifuged at 221.300×g for 50 min. The resulting high speed supernatants were then transferred to fresh tubes and were optionally further purified before the next step. A portion of the supernatant was neutralized with 10% 0.5 M Tris-HCl and this was used to quantify Aβtotal. […]
In this model at least 20% Aβ42 lowering compared to untreated animals would be advantageous.

Aβ42 [6] = assay: Demonstration of in vivo efficacy: Aβ42 lowering in brain after single oral dose (Table 13); settings: mouse brain soluble fraction, ELISA, mean, compared to untreated animals
Text: as §5, §6, §7
Mouse brains were resuspended in 10 volumes of 0.4% DEA (diethylamine)/50 mM NaCl pH 10 (for non-transgenic animals) or 0.1% 3-[3-cholamidopropyl)-dimethyl-ammonio]-1-propanesulfonate (CHAPS) in tris buffered saline (TBS) (for transgenic animals) containing protease inhibitors (Roche-11873580001 or 04693159001) per gram of tissue, e.g. for 0.158 g brain, add 1.58 ml of 0.4% DEA. All samples were sonicated for 30 seconds on ice at 20% power output (pulse mode). Homogenates were centrifuged at 221.300×g for 50 min. The resulting high speed supernatants were then transferred to fresh tubes and were optionally further purified before the next step. A portion of the supernatant was neutralized with 10% 0.5 M Tris-HCl and this was used to quantify Aβtotal.
The obtained supernatants were purified with Water Oasis HLB reverse phase columns (Waters Corp., Milford, Mass.) to remove non-specific immunoreactive material from the brain lysates prior subsequent Aβ detection. Using a vacuum manifold, all solutions were passed through the columns at a rate of approximately 1 ml per minute, so the vacuum pressure was adjusted accordingly throughout the procedure. Columns were preconditioned with 1 ml of 100% MeOH, before equilibration with 1 ml of H2O. Non-neutralized brain lysates were loaded onto the columns. The loaded samples were then washed twice with the first wash performed with 1 ml of 5% MeOH, and the second wash with 1 ml of 30% MeOH. Finally, the Aβ was eluted from the columns and into 100×30 mm glass tubes, with a solution of 90% MeOH with 2% NH4OH. […]

[7] = Table 12b, Method 1, SKNBE2 cells carrying APP 695 wild type, cell supernatant ELISA, averaged IC50 values
[8] = Table 12b, Method 1, SKNBE2 cells carrying APP 695 wild type, cell supernatant ELISA, averaged IC50 values, percentage of control vs log concentration
[9] = Method 1, Table 12a, SKNBE2 cells carrying APP 695 wild type, compounds 18 hours, ELISA, curve top and bottom fixed to 100 and 0, hill slope 1

Structure (SMILES) | IC50 (Aβtotal [1]; [7]) [nM] | IC50 (Aβ42 [2]; [8]) [nM] | melting point [°C] | IC50 (Aβ42 [3]) [nM] | IC50 (Aβtotal [4]) [nM] | IC50 (Aβtotal [1]; [9]) [nM] | IC50 (Aβ42 [2]; [9]) [nM] | Aβtotal (% Ctrl)_Mean (Aβtotal [5]) [% Ctrl] | Aβ42 (% Ctrl)_Mean (Aβ42 [6]) [% Ctrl]
COc1cc(Nc2cccn3cc(C)nc23)ccc1-n1cncn1 [Compound 80] | > 10000 | 3800 | 147.5 | – | – | – | – | – | –
COc1cc(Nc2cccn3cc(-c4cc(C#N)ccc4C)nc23)ccc1-n1cnc(C)c1 [Compound 105] | > 3020 | 89 | 127.5 | 32 | 6610 | – | – | – | –
COc1cc(Nc2cccn3c(C)c(-c4ccc(CC(C)C)cc4)nc23)ccc1-n1cnc(C)c1 [Compound 38] | > 3020 | 51 | 224.6 | – | – | > 3000 | 54 | – | –
COc1cc(Nc2cccn3cc(-c4ccccc4C)nc23)ccc1-n1cnc(C)n1 [Compound 70] | – | – | – | 68 | > 3020 | – | – | 99 | 84
COc1cccc(-c2nc3c(Nc4ccc(-n5ccnc5)c(OC)c4)cccn3c2C)c1 [Compound 35] | > 3020 | 19 | 124.2 | – | – | > 1000 | 19 | – | –
Cc1ncn(-c2ccc(Nc3cccn4c(C)c(C)nc34)cc2)n1 [Compound 79] | > 10000 | 7410 | 230.6 | – | – | – | – | – | –
COc1cc(Nc2cccn3cc(-c4ccc(C#N)cc4)nc23)ccc1-n1cnc(C)c1 [Compound 31] | > 30200 | 589 | 193.4 | – | – | > 5000 | 595 | – | –
CCc1cn(-c2ccc(Nc3cccn4c(C)c(-c5cccc(OC)c5)nc34)cc2OC)cn1 [Compound 63] | > 3020 | 29 | 159.9 | – | – | > 3000 | 29 | – | –
Cc1cn2cccc(Nc3ccc(-n4cnc(C)n4)cc3)c2n1 [Compound 78] | > 10000 | 9550 | 213.1 | – | – | > 10000 | 6440 | – | –
Cc1ccc(C(F)(F)F)cc1-c1cn2cccc(Nc3ccc(-n4ncnc4C)c(F)c3)c2n1 [Compound 130] | > 3020 | 178 | 210 | – | – | – | – | – | –
COc1nc(Nc2cc(C(C)C)nn3cc(-c4ccccc4Cl)nc23)ccc1-n1cnc(C)c1 [Compound 163] | – | – | 179.3 | 166 | 8320 | – | – | – | –
COc1nc(Nc2cccn3c(C)c(-c4ccccc4Cl)nc23)ccc1-n1cnc(C)n1 [Compound 145] | – | – | 250.3 | 7 | > 10000 | – | – | – | –
COc1cc(Nc2cccn3c(OC)c(-c4ccc(F)cc4)nc23)ccc1-n1cnc(C)n1 [Compound 132] | – | – | 165.1 | 251 | 6920 | – | – | – | –
COCCc1c(-c2ccc(F)cc2)nc2c(Nc3ccc(-n4cnc(C)n4)c(OC)c3)cccn12 [Compound 127] | > 10000 | 89 | 149.5 | 56 | > 10000 | – | – | – | –
